According to patent US20240082228A1, “SARS-COV-2 THERAPEUTICS” (priority 2021, published 2024):
Several values for one entry are separate records, joined by “and”; a condition that tells them apart may be missing. Identical values can stand only once. Like-named read-outs stand apart in the source and are kept apart here.

Experiments:
SARS-CoV-2 = assay: microbe, parasite or virus in culture; format: cell-based; conditions: for activity at 1 µM: Severe acute respiratory syndrome coronavirus 2, 1 uM, read-out: Normalized Infection (1 uM); for HIT: overall, 1 or 5 uM; for activity at 5 µM: Severe acute respiratory syndrome coronavirus 2, 5 uM, read-out: Normalized Infection (5 uM)
[1] = for Average Cell Number (1 uM) / Cell Number (1 uM) / Normalized Cell Number (1 uM): compound at 1 uM; for Average Cell Number (1 uM) / Average Cell Number (5 uM): average of normalized cell number, n=3, relative to DMSO; for Cell Number (1 uM) / Normalized Cell Number (1 uM) / Cell Number (5 uM) / Normalized Cell Number (5 uM): single replicate; for Cell Number (1 uM) / Cell Number (5 uM): raw cell count; for Normalized Cell Number (1 uM) / Normalized Cell Number (5 uM): relative to negative control DMSO; for Average Cell Number (5 uM) / Cell Number (5 uM) / Normalized Cell Number (5 uM): compound at 5 uM
[2] = single replicate, relative to negative control DMSO
[3] = 1 uM, average log2FC infection (n=3) relative to DMSO
[4] = 5 uM, average log2FC infection (n=3) relative to DMSO
[5] = 1 uM, single replicate, relative to negative control DMSO
[6] = 5 uM, single replicate, relative to negative control DMSO

Structure (SMILES)	HIT (2 Std, 1 uM) (SARS-CoV-2; 1 uM)	activity at 1 µM (SARS-CoV-2; [2])	HIT (SARS-CoV-2)	Toxic (1 uM) [1]	Toxic (5 uM) [1]	Average Cell Number (1 uM) [1]	Cell Number (1 uM) [1]	Normalized Cell Number (1 uM) [1]	Average Cell Number (5 uM) [1]	Cell Number (5 uM) [1]	Normalized Cell Number (5 uM) [1]	Average Infection (1 uM) (SARS-CoV-2; [3])	Average Infection (5 uM) (SARS-CoV-2; [4])	activity at 5 µM (SARS-CoV-2; [2])	HIT (2 Stdv, 5 uM) (SARS-CoV-2; 5 uM)	also measured
O=C(O)CNC(=O)C1C(=O)N(C2CCCCC2)C(=O)N(C2CCCCC2)C1=O [Daprodustat, daprodustat]	HIT	57.7%	Yes	0 (non-toxic (Normalized Cell number>0.65)	0 (non-toxic (Normalized Cell number>0.65)	0.7431	4292 and 4412 and 4360	0.7324 and 0.7529 and 0.744	0.9695	5964 and 5671 and 5601	1.006 and 0.9569 and 0.9451	–	–	–	–	Average Infection (1 uM) (SARS-CoV-2): −0.8526; Average Infection (5 uM) (SARS-CoV-2): −0.09093
C#C[C@]1(O)CC[C@H]2[C@@H]3CCC4=CCCC[C@@H]4[C@H]3C(=C)C[C@@]21CC [Desogestrel, desogestrel]	HIT	80.9%	Yes	0 (non-toxic (Normalized Cell number>0.65)	0 (non-toxic (Normalized Cell number>0.65)	0.8768	5131 and 5212 and 5072	0.8756 and 0.8894 and 0.8655	0.9255	5708 and 5824 and 4922	0.9632 and 0.9828 and 0.8305	−0.4489	−0.1002	87%	–	–
C#C[C@]1(O)CC[C@H]2[C@@H]3CCC4=CC(=O)CC[C@@H]4[C@H]3C(=C)C[C@@]21CC [Etonogestrel, etonogestrel]	HIT	72%	Yes	0 (non-toxic (Normalized Cell number>0.65)	–	0.734	4255 and 4398 and 4251	0.7261 and 0.7505 and 0.7254	0.5829	–	–	−0.4065	−1.187	–	HIT	–
CS(=O)(=O)N1CCN(Cc2cc3nc(-c4cccc5[nH]ncc45)nc(N4CCOCC4)c3s2)CC1 [GDC-0941, pictilisib]	HIT	14.6%	Yes	0 (non-toxic (Normalized Cell number>0.65)	0 (non-toxic (Normalized Cell number>0.65)	0.7899	4447 and 4698 and 4741	0.7589 and 0.8017 and 0.809	0.8826	5415 and 4385 and 5891	0.9137 and 0.7399 and 0.9941	−2.374	−2.82	–	HIT	–
CC(C)N1CCN(Cc2cnc(-c3cc(-c4cccc5[nH]ccc45)cc4[nH]ncc34)o2)CC1 [GSK2269557, nemiralisib]	HIT	–	Yes	0 (non-toxic (Normalized Cell number>0.65)	0 (non-toxic (Normalized Cell number>0.65)	0.8919	4831 and 5665 and 5184	0.8244 and 0.9667 and 0.8846	0.7914	4568 and 3831 and 5671	0.7708 and 0.6465 and 0.9569	–	–	–	HIT	Average Infection (1 uM) (SARS-CoV-2): −0.7144; Average Infection (5 uM) (SARS-CoV-2): −3.347; % Infection (1 uM) (SARS-CoV-2; 1 uM, single replicate of triplicate): 17.26% and 15.32% and 15.51%; Normalized Infection (1 uM) (SARS-CoV-2; [5]): 0.6572 and 0.5833 and 0.5904; log2FC Infection (1 uM) (SARS-CoV-2; [5]): −0.6055 and −0.7776 and −0.7601; % Infection (5 uM) (SARS-CoV-2; 5 uM, single replicate of triplicate): 1.292% and 0.4698% and 5.713%; Normalized Infection (5 uM) (SARS-CoV-2; [6]): 0.08388 and 0.03051 and 0.371; log2FC Infection (5 uM) (SARS-CoV-2; [6]): −3.575 and −5.034 and −1.43
CCCCN(CCCC)CCC(O)c1cc2c(Cl)cc(Cl)cc2c2cc(C(F)(F)F)ccc12 (stereo not drawn) [Halofantrine lot −4, halofantrine]	HIT	48.6%	Yes	0 (non-toxic (Normalized Cell number>0.65)	0 (non-toxic (Normalized Cell number>0.65)	0.8035	4727 and 4541 and 4857	0.8067 and 0.7749 and 0.8288	0.6652	–	–	−1.202	−1.864	23.4%	HIT	–
CCCCN(CCCC)CCC(O)c1cc2c(Cl)cc(Cl)cc2c2cc(C(F)(F)F)ccc12 (stereo not drawn) [Halofantrine lot −5, halofantrine]	HIT	–	Yes	0 (non-toxic (Normalized Cell number>0.65)	0 (non-toxic (Normalized Cell number>0.65)	0.6582	3755 and 3889 and 3927	0.6408 and 0.6637 and 0.6701	0.8653	5286 and 5054 and 5044	0.892 and 0.8528 and 0.8511	−1.062	−1.947	–	HIT	–
CC(C)(C)c1cc(C(C)(C)C)c(NC(=O)c2c[nH]c3ccccc3c2=O)cc1O [Ivacaftor, ivacaftor]	HIT	59.8%	Yes	–	0 (non-toxic (Normalized Cell number>0.65)	0.6354	3730 and 3662 and 3779	0.6365 and 0.6249 and 0.6449	0.735	4520 and 4563 and 3984	0.7627 and 0.77 and 0.6723	–	–	60.9%	HIT	Average Infection (1 uM) (SARS-CoV-2): −0.9235; Average Infection (5 uM) (SARS-CoV-2): −0.9409
CC1(N)CCN(c2cccnc2NC(=O)c2nc(-c3ncccc3C(F)(F)F)cnc2N)CC1 [LXS-196, lxs196]	HIT	31%	Yes	0 (non-toxic (Normalized Cell number>0.65)	–	0.9125	5737 and 5507 and 4798	0.979 and 0.9398 and 0.8188	0.5379	–	–	−2.123	−6.497	–	HIT	–
CC1(C)Cc2c(-c3ccccc3)c(-c3ccc(Cl)cc3)c(CC(=O)O)n2C1 [Licofelone, licofelone]	HIT	59.1%	Yes	–	0 (non-toxic (Normalized Cell number>0.65)	0.6254	3716 and 3591 and 3687	0.6341 and 0.6128 and 0.6292	0.8061	4830 and 4798 and 4704	0.815 and 0.8096 and 0.7938	−0.7411	−0.555	–	HIT	–
O=C(O)CC[C@H]1CC[C@@](c2cc(F)ccc2F)(S(=O)(=O)c2ccc(Cl)cc2)CC1 [MK-0752, mk-0752]	HIT	70.8%	Yes	0 (non-toxic (Normalized Cell number>0.65)	0 (non-toxic (Normalized Cell number>0.65)	0.6912	3905 and 4070 and 4177	0.6664 and 0.6945 and 0.7128	0.8746	5100 and 5130 and 5319	0.8606 and 0.8656 and 0.8975	−0.4386	−0.353	–	–	–
O=C(O)Cn1nnc(-c2cc(N3CCC(Oc4cc(F)ccc4Br)CC3)no2)n1 [MK-8245, mk-8245]	HIT	–	Yes	0 (non-toxic (Normalized Cell number>0.65)	0 (non-toxic (Normalized Cell number>0.65)	0.7263	–	–	0.9401	5812 and 4892 and 6009	0.9807 and 0.8255 and 1.014	0.7764	−0.05739	–	–	–
CC1(C)S[C@@H]2[C@H](/N=C/N3CCCCCC3)C(=O)N2[C@H]1C(=O)O [Mecillinam, mecillinam]	HIT	–	Yes	0 (non-toxic (Normalized Cell number>0.65)	0 (non-toxic (Normalized Cell number>0.65)	1.097	6136 and 6699 and 6450	1.047 and 1.143 and 1.101	0.9928	6088 and 5755 and 5808	1.027 and 0.9711 and 0.9801	−3.47	−0.06608	104%	–	–
